According to paper PMC11246995 (Frontiers in Molecular Biosciences, 2024):

Legend:
kidney tissues [1] = assay: MALDI MSI ion intensity of renal endogenous metabolites, rotenone-treated vs untreated kidney; format: in vivo, rat; parameters: key to Ion Intensity in Rotenone-treated Kidney Tissues: N-Acetylhistidine / Ion Intensity in Rotenone-treated Kidney Tissues: O-Phosphotyrosine / Ion Intensity in Rotenone-treated Kidney Tissues: Adenosine diphosphate / Ion Intensity in Rotenone-treated Kidney Tissues: LysoPC(P-16:0) / Ion Intensity in Rotenone-treated Kidney Tissues: LysoPC(16:1) / Ion Intensity in Rotenone-treated Kidney Tissues: LysoPC(16:0) / Ion Intensity in Rotenone-treated Kidney Tissues: LysoPC(17:0) / Ion Intensity in Rotenone-treated Kidney Tissues: LysoPC(18:2) / Ion Intensity in Rotenone-treated Kidney Tissues: L-carnitine / Ion Intensity in Rotenone-treated Kidney Tissues: LysoPC(18:1) / Ion Intensity in Rotenone-treated Kidney Tissues: LysoPC(20:4) / Ion Intensity in Rotenone-treated Kidney Tissues: Phosphorylcholine / Ion Intensity in Rotenone-treated Kidney Tissues: Adenosine monophosphate / Ion Intensity in Rotenone-treated Kidney Tissues: Creatinine / Ion Intensity in Rotenone-treated Kidney Tissues: Histidine / Ion Intensity in Rotenone-treated Kidney Tissues: Phenylalanine / Ion Intensity in Rotenone-treated Kidney Tissues: 3-methylhistidine / Ion Intensity in Rotenone-treated Kidney Tissues: Arginine: ↑ indicates higher ion intensity level than that of the control group; ↓ indicates lower ion intensity level than that of the control group; *p < 0.05; **p < 0.01; ***p < 0.001; details: vs control; for Ion intensity in rotenone-treated kidney tissues: Glycero-3-phosphocholine / Ion intensity in rotenone-treated kidney tissues: Inosine / Ion intensity in rotenone-treated kidney tissues: LysoPC(18:0): [M+K]+
Method: (§1) Rats were sacrificed 24 h after drug administration, and the kidney and liver organs were immediately removed, flash-frozen with liquid nitrogen, and stored at −80°C in a freezer for long-term storage. The administration and harvesting of organs were conducted by the Pharmalytics Corporation, accredited by the Food and Drug Administration (FDA, Philippines) for bioavailability and bioequivalence research. The animal study was reviewed and approved by the Institutional Animal Care and Use Committee (IACUC) Esteleydes Animal Laboratory and Research Facility and by the Bureau of Animal Industry—Animal Health and Welfare Division in the Philippines.
To identify possible metabolic alterations, the m/z values of endogenous compounds found in kidney were extracted from the human metabolome database (http://www.hmdb.ca). The spatial mapping of endogenous compounds was visualized by MALDI HDMS imaging. The detection of metabolite biomarkers was supported by their spatial distribution, normalized ion intensity, m/z accuracy, and similar drift time bins in thin tissues sectioned from the seven identified layers of drug-treated and control rat kidney.
MALDI HDMS raw data was imported into High-Definition Imaging (HDI) software v1.5 (Waters Corporation, Manchester, United Kingdom). Data processing was performed by detecting 10,000 intense peaks between a mass range of m/z 50–750, a drift time maximum of 200 bins, and a lock mass-based correction at m/z 464.6064. Following data processing, peak picking was carried out and data was normalized based on the total ion current (TIC). The spatial distribution of rotenone and kidney endogenous molecules from the m/z peak list was visualized using the HDI software. […] The tentative identification and assignment of kidney metabolites were based on the metabolites in the human metabolome database (http://www.hmdb.ca). The m/z values and structure of these renal endogenous molecules were verified using PubChem (https://pubchem.ncbi.nlm.nih.gov), ChemDraw Professionals, and by the related literature ([Jung et al., 2016]; [Nizioł et al., 2020]; [Zhu Y. et al., 2022]).
A multivariate analysis was performed by importing the merged CSV file of processed MALDI image data into EZinfo v3.0 (Waters Corporation, Manchester, United Kingdom). Principal component analysis (PCA) was used to find patterns or trend in the MALDI dataset of the control and drug-treated groups. A peak list of biomolecules was manually created for PCA analysis from the laser-ablated kidney tissue sections. Pareto variance was used to scale the x-variable and to eliminate any bias in this unsupervised algorithm. Similar and far away observations between the dataset were illustrated based on the t[1] and t[2] indices. Meanwhile, the statistical differences between the mass ion intensity of endogenous compounds in two treatment groups were analyzed using the Student’s t-test of GraphPad Prism version 9.4.0 (GraphPad Software Inc., San Diego, CA, United States). The significance threshold was set at p < 0.05 (*), p < 0.01 (**), and p < 0.001 (***).

[2] = Qualitative MALDI MSI with ion mobility: spatial distribution of rotenone and its metabolites in kidney and liver; format: in vivo; details: rat, single oral 2 mg/kg, 24 h
Method: Agarose-embedded kidney and liver organs were cut longitudinally at 5 µm thickness at −20°C using a cryostat (Leica CM 1950; Leica Biosystems, Germany), and thaw-mounted onto clean glass slides. The agarose-embedded kidney or liver was trimmed up to 500 µm to remove the agarose covering a portion of the organ. Subsequently, seven layers from the outer portion towards the middle were identified with a 100 µm distance between each layer. Representative cryosections were obtained from each identified layer of the untreated and drug-treated rat kidney. The agarose surrounding the kidney or liver cryosectioned tissue was manually removed before mounting onto a glass slide. Prior to matrix coating, the glass slides mounted with thin kidney cryosections were placed in a box and kept in a vacuum desiccator cabinet overnight ([Costa et al., 2013]; [Marques et al., 2014]; [Dalisay et al., 2015]; [Suarez et al., 2023]).
Matrix solution was applied to evenly coat the entire tissue surface using a HTX M5 Sprayer (HTX Technologies, LLC, Carrboro, NC, United States). The parameter settings were optimized to avoid metabolite delocalization and compromised spatial integrity. […]

kidney tissues [3] = assay: H&E histology of rotenone-treated kidney tissue sections; format: in vivo; details: rat, single oral 2 mg/kg, 24 h
Method: as §1
Matrix was removed from the laser-ablated kidney sections using 95% EtOH for 20 s before rehydration with distilled water. The tissue-mounted glass slides were immersed in Harris hematoxylin solution (Sigma Aldrich, St. Louis, MO, United States) for 4 min and the excess was rinsed off with deionized water twice for 1 min. Hematoxylin differentiation of tissues was then performed using 0.5% acid alcohol for 10 s. The glass slides were rinsed using deionized water for 1 min followed by soaking in ammonia solution for 1 min and rinsing in deionized water twice for 1 min. Kidney sections were then counterstained using eosin Y solution (Sigma Aldrich, St. Louis, MO, United States) for 2 min. […]

rats = details: ref Jiang et al. (2017); cited from earlier work
[4] = ref Udeani et al., 2001; Organization for Economic Cooperation and Development, 2020; cited from earlier work
[5] = rat, single oral 2 mg/kg, 24 h, [M+H]+

SMILES: C=C(C)[C@H]1Cc2c(ccc3c2O[C@@H]2COc4cc(OC)c(OC)cc4[C@@H]2C3=O)O1 [rotenone, Rotenone]
- Ion Intensity in Rotenone-treated Kidney Tissues: 3-methylhistidine (kidney tissues [1]; Table S1, [M+H]+): ↓
- Ion Intensity in Rotenone-treated Kidney Tissues: Adenosine diphosphate (kidney tissues [1]; Table S1, [M+H]+): ↑
- Ion Intensity in Rotenone-treated Kidney Tissues: Adenosine monophosphate (kidney tissues [1]; Table S1, [M+H]+): ↓
- Ion Intensity in Rotenone-treated Kidney Tissues: Arginine (kidney tissues [1]; Table S1, [M+H]+): ↓
- Ion Intensity in Rotenone-treated Kidney Tissues: Creatinine (kidney tissues [1]; Table S1, [M+H]+): ↓
- Ion Intensity in Rotenone-treated Kidney Tissues: Histidine (kidney tissues [1]; Table S1, [M+H]+): ↑
- Ion Intensity in Rotenone-treated Kidney Tissues: L-carnitine (kidney tissues [1]; Table S1, [M+H]+): ↑
- Ion Intensity in Rotenone-treated Kidney Tissues: LysoPC(16:0) (kidney tissues [1]; Table S1, [M+H]+): ↓
- Ion Intensity in Rotenone-treated Kidney Tissues: LysoPC(16:1) (kidney tissues [1]; Table S1, [M+H]+): ↑
- Ion Intensity in Rotenone-treated Kidney Tissues: LysoPC(17:0) (kidney tissues [1]; Table S1, [M+H]+): ↓
- Ion Intensity in Rotenone-treated Kidney Tissues: LysoPC(18:1) (kidney tissues [1]; Table S1, [M+H]+): ↑
- Ion Intensity in Rotenone-treated Kidney Tissues: LysoPC(18:2) (kidney tissues [1]; Table S1, [M+H]+): ↑
- Ion Intensity in Rotenone-treated Kidney Tissues: LysoPC(20:4) (kidney tissues [1]; Table S1, [M+H]+): ↑
- Ion Intensity in Rotenone-treated Kidney Tissues: LysoPC(P-16:0) (kidney tissues [1]; Table S1, [M+H]+): ↓
- Ion Intensity in Rotenone-treated Kidney Tissues: N-Acetylhistidine (kidney tissues [1]; Table S1, [M+H]+): ↓
- Ion Intensity in Rotenone-treated Kidney Tissues: O-Phosphotyrosine (kidney tissues [1]; Table S1, [M+H]+): ↓
- Ion Intensity in Rotenone-treated Kidney Tissues: Phenylalanine (kidney tissues [1]; Table S1, [M+H]+): ↓
- Ion intensity in rotenone-treated kidney tissues: Choline (kidney tissues [1]; Table S1, [M+H]+): ↓***
- Ion intensity in rotenone-treated kidney tissues: Sphingomyelin (D18:1/16:0) (kidney tissues [1]; Table S1, [M+H]+): ↑*
- Ion intensity in rotenone-treated kidney tissues: Glycero-3-phosphocholine (kidney tissues [1]; Table S1): ↓*
- Ion intensity in rotenone-treated kidney tissues: Inosine (kidney tissues [1]; Table S1): ↓**
- Ion intensity in rotenone-treated kidney tissues: LysoPC(18:0) (kidney tissues [1]; Table S1): ↓**
- Ion Intensity in Rotenone-treated Kidney Tissues: Phosphorylcholine (kidney tissues [1]; Table S1, [M]+): ↑
- Ion intensity in rotenone-treated kidney tissues: Choline (kidney tissues [1]; [5]): ↓***
- Ion intensity in rotenone-treated kidney tissues: Sphingomyelin (D18:1/16:0) (kidney tissues [1]; [5]): ↑*
- Ion intensity in rotenone-treated kidney tissues: Glycero-3-phosphocholine (kidney tissues [1]; rat, single oral 2 mg/kg, 24 h): ↓*
- Ion intensity in rotenone-treated kidney tissues: Inosine (kidney tissues [1]; rat, single oral 2 mg/kg, 24 h): ↓**
- Ion intensity in rotenone-treated kidney tissues: LysoPC(18:0) (kidney tissues [1]; rat, single oral 2 mg/kg, 24 h): ↓**
- ion intensity of choline in kidney tissues treated with rotenone (kidney tissues [1]; p < 0.001): significant decrease
- inosine level in treated kidney (kidney tissues [1]; p < 0.01): significant reduction
- ion intensity levels of LysoPC(18:0) in rotenone-treated kidney tissues (kidney tissues [1]; p < 0.01): decreased significantly
- GPC level in drug-treated kidney tissues (kidney tissues [1]; p < 0.05): decreased significantly
- sphingomyelin (D18:1/16:0) level in treated kidney (kidney tissues [1]; p < 0.05): significant increase
- biotransformed metabolites of rotenone in kidney tissue sections (MALDI MSI) ([2]; kidney): no biotransformed metabolites of rotenone were detected
- biotransformed metabolites of rotenone in liver tissues (MALDI MSI) ([2]; liver): no biotransformed metabolites
- histological alterations in kidney tissue sections stained with H&E (kidney tissues [3]): no discernible histological alterations were detected
- oral acute toxicity (rats): 34.10 mg/kg body weight
- metabolic clearance rate [4]: approximately 100 mL/min/kg
